Measured values published in patent US5504106A, “Phenyl amidine alkanoic acids and lactones useful as platelet aggregation inhibitors” (G. D. Searle & Co., priority 1994, dated 1996).
Several values for one entry are separate records, joined by “and”; a condition that tells them apart may be missing. Equal values may be shown once. Where a name gives a salt, the structure may show the parent alone.

Tested on: Dog PRP
Assay: In-Vitro Platelet Aggregation in PRP (ADP-induced)
Format: cell-based
Settings: dog platelet-rich plasma, ADP-induced aggregation (50 μm final concentration), 37° C.; for Dog PRP % Inhibition: Test Concentration 1 × 10^-5; for IC50: 1 minute preincubation, linear regression of dose response curve
Protocol: Healthy male or female dogs were fasted for 8 hours prior to drawing blood; then 30 ml whole blood was collected using a butterfly needle and 30 cc plastic syringe with 3 ml of 0.129M buffered sodium citrate (3.8%). The syringe was rotated carefully as blood was drawn to mix the citrate. Platelet-rich plasma (PRP) was prepared by centrifugation at 975× g for 3.17 minutes at room temperature, allowing the centrifuge to coast to a stop without braking. The PRP was removed from the blood with a plastic pipette and placed in a plastic capped, 50 ml Corning conical sterile centrifuge tube which was held at room temperature. Platelet poor plasma (PPP) was prepared by centrifuging the remaining blood at 2000× g for 15 minutes at room temperature allowing the centrifuge to coast to a stop without braking. The PRP was adjusted with PPP to a count of 2-3×10^8 platelets per ml. 400 μl of the PRP preparation and 50 μl of the compound to be tested as prepared below or saline were preincubated for 1 minute at 37° C. in a BioData aggregometer (BioData, Horsham, Pa.). 50 μl of adenosine 5'diphosphate (ADP) (50 μm final concentration) was added to the cuvettes and the aggregation was monitored for 1 minute. The test compounds were prepared by the following procedure. The compound was dissolved in 100% ethanol at a concentration of 10^-2 M. It was vortexed for 30 seconds followed by the addition of 1.1 equivalents of 1N NaOH. This solution was mixed for 30 minutes at room temperature. After the 30 minutes of mixing, the compound solution was brought to a working concentration of 10^-3 M with double distilled water. All compounds are tested in duplicate. Results are calculated as follows:
Percent of control= (maximal OD minus initial OD of compound) divided by (maximal OD minus initial OD of control saline)!×100. The % inhibition=100-(percent of control).
The assay results for the representative compounds of the present invention are set forth in Table A. Also in Table A, two readings given in a single box indicate that two trials, rather than a single trial, were run for that particular compound in that particular assay.

[1] = Canis lupus familiaris, Platelet

N=C(N)c1ccc(CCCCC2CCCC(=O)O2)cc1 (racemic) [6-4-(4-(aminoiminomethyl)phenyl)butyl)tetrahydro-2H -pyran-2-one]
Dog PRP % Inhibition: 29% and 38%

COC(=O)CC1CC(=O)OC(CCCCc2ccc(C(=N)N)cc2)C1 (racemic) [(±)-cis-methyl 2-4-4-(aminoiminomethyl)phenyl!butyl!tetrahydro-6-oxo-2H-pyran-4-acetate]
IC50: 4 µM | Dog PRP % Inhibition: 100%

N=C(N)c1ccc(CCCC[C@@H]2C[C@H](c3cccnc3)CC(=O)O2)cc1 (relative stereo) [(±)-cis-6-4-4-(Aminoiminomethyl)phenyl)butyl!tetrahydro-4-(3-pyridinyl)-2H-pyran-2-one, ditrifluoroacetate]
IC50 [1]: 0.16 µM | Dog PRP % Inhibition: 100%

C[C@@H]1CC(=O)O[C@H](CCCCc2ccc(C(=N)N)cc2)C1 (relative stereo) [(±)-cis-6-4-4-(Aminoiminomethyl)phenyl)butyl!tetrahydro-4-methyl-2H-pyran-2-one, trifluoroacetate]
IC50 [1]: 7.1 µM | Dog PRP % Inhibition: 74%

N=C(N)c1ccc(CCCC[C@@H]2C[C@H](c3ccccc3)CC(=O)O2)cc1 (relative stereo) [(±)-cis-6-4-4-(Aminoiminomethyl)phenyl)butyl!tetrahydro-4-phenyl-2H-pyran-2-one, trifluoroacetate]
IC50 [1]: 4.2 µM | Dog PRP % Inhibition: 100%

N=C(N)c1ccc(CCCC[C@@H]2C[C@H](CS(=O)(=O)c3ccccc3)CC(=O)O2)cc1 (relative stereo) [(±)-cis-6-4-4-(aminoiminomethyl)phenyl!butyl!tetrahydro-4-(phenylsulfonyl)methyl!-2H-pyran-2-one, trifluoroacetate]
IC50 [1]: 2.6 µM | Dog PRP % Inhibition: 100%

N=C(N)c1ccc(CCCC[C@@H]2C[C@H](O)CC(=O)O2)cc1 (relative stereo) [(±)-cis-6-4-4-Aminoiminomethyl)phenyl!butyl!tetrahydro-4-hydroxy-2H-pyran-2-one, trifluoroacetate]
IC50 [1]: 5.3 µM | IC50: 4.1 µM | Dog PRP % Inhibition: 89% and 96%

C=C[C@@H]1CC(=O)O[C@H](CCCCc2ccc(C(=N)N)cc2)C1 (relative stereo) [(±)-cis-6-4-(4-(Aminoiminomethyl)phenyl)butyl!-4-ethenyl-tetrahydro-2H-pyran-2-one, trifluoroacetate]
IC50 [1]: 2.6 µM | Dog PRP % Inhibition: 100%

N=C(N)c1ccc(CCCC[C@@H]2C[C@@H](c3ccccc3)CC(=O)O2)cc1 (relative stereo) [(±)-trans-6-4-4-(Aminoimino)phenyl)butyl!tetrahydro-4-phenyl-2H-pyran-2-one, trifluoroacetate]
Dog PRP % Inhibition: 7%

N=C(N)c1ccc(CCCC[C@@H]2C[C@@H](O)CC(=O)O2)cc1 (relative stereo) [(±)-trans-6-4-4-(Aminoiminomethyl)phenyl!butyl!tetrahydro-4-hydroxy-2H-pyran-2-one, trifluoroacetate]
Dog PRP % Inhibition: 36%

N=C(N)c1ccc(NC(=O)CC[C@@H]2C[C@H](O)CC(=O)O2)cc1 [N-4-(aminoiminomethyl)phenyl!3,4,5,6-tetrahydro-6-oxo-4S-hydroxy-2H-pyran-2R-propanamide, trifluoroacetate]
IC50 [1]: 0.35 µM

N=C(N)c1ccc(NC(=O)CCC2CCCC(=O)O2)cc1 (centres unmarked) [N-4-(aminoiminomethyl)phenyl!tetrahydro-6-oxo-2H-pyran-2-propanamide, trifluoroacetate]
IC50 [1]: 2.9 µM
